Assay results taken from the NIST ThermoML archive (doi:10.1016/j.jct.2008.10.016).

Tests used:
[1] = Drop volume
[2] = xn = mol fraction of the nth substance listed; conditions: Drop volume

CCCCCCl [1-chloropentane]
[1]
Conditions	surface tension liquid-gas [mN/m]
283.15 K	26.02
288.15 K	25.58
293.15 K	25.02
298.15 K	24.46
303.15 K	24.02
308.15 K	23.51
313.15 K	23.02

CCCCCl [1-chlorobutane]
[1]
Conditions	surface tension liquid-gas [mN/m]
283.15 K	24.73
288.15 K	24.24
293.15 K	23.64
298.15 K	23.29
303.15 K	22.62
308.15 K	22.03
313.15 K	21.53

CCCCCC [hexane]
[1]
Conditions	surface tension liquid-gas [mN/m]
283.15 K	19.63
288.15 K	19.04
293.15 K	18.52
298.15 K	18.06
303.15 K	17.53
308.15 K	16.74
313.15 K	16.47

CCCCCCl [1-chloropentane] + CCCCCC
surface tension liquid-gas [mN/m], [2]
Conditions	283.15 K	288.15 K	293.15 K	298.15 K	303.15 K	308.15 K	313.15 K
x2 = 0.0482	25.44	25.02	24.53	24.02	23.59	23.11	22.64
x2 = 0.1185	24.7	24.3	23.83	23.35	22.95	22.45	22.02
x2 = 0.1991	24	23.59	23.09	22.64	22.24	21.71	21.3
x2 = 0.308	23.2	22.76	22.25	21.78	21.37	20.8	20.41
x2 = 0.3925	22.62	22.17	21.67	21.2	20.75	20.16	19.8
x2 = 0.5087	21.91	21.44	20.94	20.47	20.03	19.4	19.05
x2 = 0.5953	21.41	20.94	20.47	20.02	19.56	18.91	18.56
x2 = 0.7076	20.85	20.37	19.9	19.45	18.98	18.3	18
x2 = 0.7889	20.47	19.98	19.5	19.04	18.56	17.88	17.58
x2 = 0.9069	19.97	19.44	18.94	18.5	17.99	17.25	16.99
x2 = 0.9474	19.81	19.24	18.74	18.29	17.79	17.05	16.77
